Structures are written as SMILES.

`Nc1ccc(F)cc1C(=O)c1ccccc1` had a melting point of 112 to 113 °C. Consider `CC(C)N1Cc2c(F)cccc2N(CCN2CC=C(c3c[nH]c4cc(F)ccc34)CC2)S1(=O)=O`, for which the melting point fell in the range of 107 to 109 °C. With `COC(=O)C1=C(C)NC2=C(C(=O)NCC2)C1c1ccc(F)c(Br)c1` (stereo unspecified), the melting point lay in the range of 150 to 152 °C. Under `O=C1C=CC(O)(c2cc3ccccc3o2)c2ccccc21` (stereo unspecified) stands 105 to 107 °C; under `CCOC(=O)N1CCc2c([nH]c3ccc(Cl)cc23)C1C1(C(N)=O)CCC1` (stereo unspecified), 200 to 220 °C. `Nc1ccc2ccc(Oc3ccccc3F)nc2n1` gave a melting point of 206 °C. The compound `COc1ccc(NC(=O)c2c(Cl)cccc2Cl)c2nccc(Cl)c12` yielded a melting point of 238 to 242 °C. As for `COC(=O)CCc1nc(-c2cc3ccccc3o2)no1`, the melting point is 112 to 113 °C. The result for `CN1CC(CNC(=N)NC(=O)c2cccnc2)CC2c3cccc4c3c(cn4C)CC21` (stereo unspecified) reads 207 to 209 °C; that for `Cc1nc2cc(CN3CCN(C(c4ccccc4)c4ccccc4)CC3)ccc2n1CCSc1ccccc1`, 170 °C.

Regarding `CC(C)(C)OC(=O)N1CCC(CS(=O)Cc2cc(C(F)(F)F)cc(C(F)(F)F)c2)(c2ccccc2)CC1` (stereo unspecified), the melting point lay in the range of 123 to 134 °C. Under `CN(C(=O)OCc1ccccc1)c1ccc([N+](=O)[O-])cc1O` stands 192 °C; under `CNS(=O)(=O)c1nc2ccc(O)cc2s1`, 189 to 190 °C. As for `COc1ccc(-c2cc(-c3ccccc3)[nH]c2C(=O)Nc2ccc(C(=O)NO)cc2)cc1`, the melting point was in the range of 234 to 235 °C. With `CCOc1cc(OCCCc2cn(-c3ccc(C(F)(F)F)cn3)nc2O)ccc1CCC(=O)O`, the melting point fell in the range of 192 to 194 °C. As to `C#CC1(O)C(C)CC2C3CCC4=CC(=O)CCC4(C)C3=CCC21C` (stereo unspecified), the melting point was in the range of 213 to 218 °C. As for `CC1Cc2cc3c(cc2C(c2ccccc2)N1)OCO3` (stereo unspecified), the melting point was in the range of 89 to 91 °C.

`Cc1cc(F)ccc1-c1cc(N2CCSCC2)ncc1C(N)=O` registered a melting point of 198 to 202 °C. Consider `Cc1nc(-n2ccc(O)cc2=O)sc1C(=O)NCCc1ccc(F)cc1`, for which the melting point was 225 to 227 °C. Compound `O=c1[nH]c2c(Cl)ncnc2n1CCN1CCC(Nc2nc3ccccc3n2Cc2ccc(F)cc2)CC1` displayed a melting point of 266 °C.

The compound `Cc1[nH]c2ccc(F)cc2c1C(=O)Nc1ccc(OCC(C)(C)C)c(C#N)c1` yielded a melting point of 169 to 171 °C.

In turn, `CSc1cnn(C(C)(C)C)c(=O)c1C` had a melting point of 115 to 116 °C.

For `COc1ccc(NC(=O)N(Cc2ccccn2)Cc2ccc(F)cc2F)c(NC(=O)c2cc(C(C)(C)C)c(O)c(C(C)(C)C)c2)c1`, the melting point lay in the range of 176 to 178 °C.

As for `CCCCc1c(/C=C/C(=O)O)cc(OC)c2ccc(OC)cc12`, the melting point is 174 to 176 °C. `O=C(c1cc2ccc(Br)cc2o1)c1cc2ccc(Br)cc2o1` had a melting point of 176 to 177 °C. For the compound `O=C1C2=C(CCCC2)C(O)N1c1ccc(Cl)cc1F` (stereo unspecified), the melting point was 178 to 179 °C. With `Cc1ccc(C[C@H]2NC(=O)CN(Cc3ccccc3)C2=O)cc1C`, the melting point lay in the range of 191 to 192 °C.

Regarding `Cc1cc(C)c(Nc2nc(C)ccc2S(=O)(=O)c2ccc(OCc3c(F)cccc3[N+](=O)[O-])cc2)c(C)c1`, the melting point lay within 132 to 134 °C. Consider `COC(=O)[C@H]1O[C@H]1C(=O)N(CC(=O)OC(C)(C)C)c1ccc(OC)cc1`, for which the melting point stood at 89 °C. Compound `Cn1cc(C2=C(c3c4n(c5ccccc35)CCCC4)C(=O)NC2=O)c2ccccc21` yielded a melting point of 286 to 289 °C.

As to `O=[N+]([O-])C1([N+](=O)[O-])COC1`, the melting point was in the range of 70 to 71 °C.

As for `OC(Cn1cncn1)(c1ccc(F)cc1)C1(Cl)CC1` (stereo unspecified), the melting point is 121 °C. Compound `COc1cc2c3c(cccc3c1Br)C(=O)N(O)C2=O` returned a melting point of 250 to 253 °C. In turn, `CCOC(=O)C(Cc1ccc(C(F)(F)F)cc1)C(=O)c1ccc(Oc2ccccc2)cc1` (stereo unspecified) showed a melting point of 67 to 68 °C. Compound `Cc1cc(NS(=O)(=O)c2cccc(S(=O)(=O)Nc3cc(C)c(S(=O)(=O)C[N+](=O)[O-])c(C)c3)c2)cc(C)c1S(=O)(=O)C[N+](=O)[O-]` yielded a melting point of 191 to 192 °C. As for `CN(Cc1cc2c3c(c1)c(=O)c(C(=O)NCc1ccc(F)cc1)cn3CC(=O)N2C)C[C@@H](O)c1ccco1`, the melting point was 150 to 152 °C. `COc1cc(O)ccc1-c1ccc2cc(O)ccc2c1` displayed a melting point of 152 to 154 °C. Regarding `Cn1c(=O)c2cnc(O)n2c2ccccc21`, the melting point is above 300 °C. Under `CC1(C)CC(C(O)CNc2nc(Cl)nc(NCC(O)C3CC(C)(C)NC(C)(C)C3)n2)CC(C)(C)N1` (stereo unspecified) stands 206 to 207 °C; under `Cc1ccc2c(c1)C=Cc1cc(C)ccc1C2c1cn(Cc2ccc(C(=O)N[C@@H](CC(=O)O)C(=O)O)o2)c(=O)[nH]c1=S`, 195 °C. For the compound `Cn1nc(Cl)c(C(=O)OC2COC2)c1S(N)(=O)=O`, the melting point was in the range of 145 to 147 °C. The result for `Nc1ccc2ccc(Oc3ccc(Cl)cc3)nc2n1` reads 177 °C; that for `Cc1ccc(Cn2cc(C(=O)C(=O)O)c3cc(-c4ccccc4)ccc32)cc1`, 195 to 196 °C. Compound `O=S(c1ccccc1)c1ncc(Cl)cn1` (stereo unspecified) yielded a melting point of 115 °C.

The compound `COc1c(OC(C)=O)ccc2cc[nH]c12` returned a melting point of 241 to 244 °C. As for `CCN(CC)C(=O)Nc1c(C(=O)c2ccccc2)[nH]c2cc(Cl)ccc12`, the melting point was 196 to 198 °C.

`CCCCCC(O)(CC#N)c1ccc(OC)cc1` (stereo unspecified) returned a melting point of 45 to 47 °C.

With `O=C(c1cc2ccccc2o1)c1ccc(O)c(Cl)c1Cl`, the melting point is 163 °C.

On to `C=Cc1cc(Br)c(OC(C)=O)c(Br)c1`, for which the melting point came to 76 °C. For `CC1CC(=O)NN=C1c1ccc(-n2cncn2)nc1` (stereo unspecified), the melting point was 256 to 257 °C. Turning to `CC(C)c1cc(Br)cc(C(C)C)c1N=C(c1ccccc1)c1ccccc1`, the melting point turned out to be 114 °C. Regarding `Cc1ccccc1-c1cn(C)cc(-c2ccccc2Cl)c1=O`, the melting point lay within 87 to 91 °C. `O=C(O)Cc1ccc(OCCCCc2cc(-c3ccc(C(F)(F)F)cc3)no2)cc1` gave a melting point of 125 to 126 °C. The compound `O=C1NC(=O)C(N(CC#Cc2ccc(F)cc2)c2ccc(CCNCC(O)COc3ccc(OCc4ccccc4)cc3)cc2)S1` (stereo unspecified) registered a melting point of 99 to 101 °C. `CC(C)(C)c1cc(C=C2OC(NC(=N)N)=NC2=O)cc(C(C)(C)C)c1O` showed a melting point of 258 °C. Turning to `COc1ccc(-c2cc(-c3cc(C)ns3)c(=O)n(C)c2-c2ccncc2)cc1`, the melting point was 195 to 198 °C. Under `CCn1ncc2c3noc(-c4cccc(OC)c4)c3cnc21` stands 170 to 171 °C; under `OCCN1CCC(=C2c3ccccc3CCn3ncnc32)CC1`, 154 °C; under `CC=C1c2ccccc2CC(NO)c2ccccc21` (stereo unspecified), 121 to 124 °C. On to `COc1cccc(C(=C/C=C/C(=O)Oc2ccc([N+](=O)[O-])cc2)c2cccc(OC)c2)c1`, for which the melting point lay within 95 to 97 °C.

With `Cc1cccc(COc2cccc(OCc3coc(C4CCCCC4)n3)c2)c1C(=O)O`, the melting point was 158 to 159 °C. Under `COC(=O)C1=C(C)NC(C)=C(C(=O)OC)C1c1ccc(OCC(=O)NCCO[N+](=O)[O-])c(OC)c1` stands 149 to 150 °C; under `CCOC(=O)c1cn2c3c(c(F)c(F)cc3c1=O)OCC2COC` (stereo unspecified), 238 °C; under `CCOc1ccc(C(C)=O)cc1C(=O)OC`, 50 to 55 °C. The compound `CCOC(=O)Cn1c(=O)sc2cccc(Oc3ccccc3)c21` yielded a melting point of 96 to 99 °C. On to `CC(C)(C)OC(=O)Nc1cc(Cl)c(C#Cc2ccccc2)cc1[N+](=O)[O-]`, for which the melting point was in the range of 166 to 167 °C.

Compound `COc1cc(C(=O)O)ccc1NC(=O)OC(C)(C)C` returned a melting point of 176 to 178 °C.

For the compound `CCC1c2cc(F)ccc2-c2ccccc2N1S(=O)(=O)c1ccc(OC(=O)CC(C)(C)C)cc1` (stereo unspecified), the melting point was found to be 128 °C. Turning to `N#Cc1ccc(N2C(=O)N(CCCCO)C3(CCSCC3)C2=O)cc1C(F)(F)F`, the melting point is 139 to 140 °C.

`CC(C)(C)OC(=O)N1CC=C(c2cnc3c(c2)N(Cc2cc(Cl)ccc2Cl)CCN3)CC1`: the melting point fell in the range of 92 to 95 °C. The compound `Cc1cccc(-c2ccc(S(=O)(=O)N3c4ccccc4CC3C(=O)O)cc2)c1` (stereo unspecified) returned a melting point of 123 to 128 °C. As for `C=CCOCc1ccc([N+](=O)[O-])cc1Nc1nccc(-c2cccnc2)n1`, the melting point lay in the range of 213 to 215 °C. For the compound `COCC(=O)COc1c([N+](=O)[O-])ccc(F)c1F`, the melting point lay in the range of 39 to 42 °C. Regarding `COc1cc(CC(=O)OC(C)(C)C)ccc1NC(=O)Nc1ccccc1C(F)(F)F`, the melting point is 131 to 133 °C. Under `COc1ccc(-n2nc(Sc3cccc4ccccc34)c(C)c(C#N)c2=O)cc1` stands 181 to 183 °C. Consider `COC1(c2cc(F)cc(S(=O)(=O)c3ccc4c(c3)OCCC4=NO)c2)CCOCC1`, for which the melting point was 209 to 210 °C. The compound `CCOC(=O)C=CNc1oc2ccc(CC)cc2c(=O)c1C=O` returned a melting point of 201 to 203 °C.

`CCCCCCC(c1cccc(C(=O)NC(c2ccccc2)c2ccccc2)c1)c1nnn[nH]1` (stereo unspecified) displayed a melting point of 198 to 200 °C. With `O=C(Nc1c(C(=O)O)[nH]c2cc(Cl)cc(Cl)c12)c1ccccc1Cc1ccccc1`, the melting point was in the range of 234 to 235 °C. In turn, `NC(=S)C(F)(F)c1ccccc1` yielded a melting point of 99 to 100 °C. `CS(=O)(=O)NC1CCN(c2ccc(C#N)c3ccccc23)C1` (stereo unspecified) yielded a melting point of 128 to 129 °C. Regarding `N#Cc1cc(S(=O)(=O)c2ccc(N)cc2)cc(Br)n1`, the melting point is 186 to 188 °C. As for `Cc1ccncc1-c1cncc(OC2SCC(O)C(O)C2O)c1` (stereo unspecified), the melting point came to 201 °C. Consider `CN(Cc1ccc(NC(=O)C2=Cc3cc(-c4ccncc4)ccc3OCC2)cc1)C1CCOCC1`, for which the melting point lay in the range of 186 to 187 °C. The compound `O=C(c1ccc(Cc2c(Cl)cc([N+](=O)[O-])cc2Cl)cc1)c1cnc(Cl)c(Cl)c1` came in with a melting point of 129 to 131 °C.

For `Cn1ncc(/C=C/C(=O)Nc2ccc3[nH]c(=O)oc3c2)c1-c1ccc(F)cc1`, the melting point is above 300 °C.

Broadly, the melting point is the temperature, or range, at which the solid turns liquid.
